Results from ChEMBL document CHEMBL1154558, “Cytotoxic prenylxanthones from Garcinia bracteata” (J Nat Prod, 2000).
In brackets after ≈: the same amount, converted by molar mass.

Columns and labels:
KB = experiment: Cytotoxicity against human KB cells by colorimetric assay; type: functional, cell-based
[1] = Inhibition of FTase by fluorimetry

Row | SMILES | Activity [1] [µg/mL] | IC50 (KB) [mg/L]
1 | CC(C)=CC[C@]12OC(C)(C)[C@@H]3C[C@@H](C=C4C(=O)c5c(O)cc6c(c5O[C@]431)C(C)(C)[C@H](C)O6)C2=O [ISOBRACTATIN] | 5.6 | 1.5 (≈ 3.23 µM)
2 | C=CC(C)(C)c1c(O)cc(OC)c2c1O[C@@]13C[C@H]4[C@@H](C=C1C2=O)[C@](CC=C(C)C)(OC4(C)C)C3=O |  | 0.2 (≈ 0.418 µM)
3 | CC(C)=CC[C@@]12OC(C)(C)[C@@H]3C[C@@H](C=C4C(=O)c5c(O)cc(O)cc5O[C@]431)C2=O |  | 0.8 (≈ 2.02 µM)
4 | C=CC(C)(C)c1c(O)cc(OC)c2c1O[C@]13[C@@H](C2=O)[C@H](OC)[C@@H]2C[C@H]1C(C)(C)O[C@@]3(CC=C(C)C)C2=O | > 10 | 1.5 (≈ 2.94 µM)

Continued, in another order:

Row | Activity [1] [µg/mL] | SMILES | IC50 (KB) [mg/L]
5 | > 10 | C=CC(C)(C)c1c(O)cc(OC)c2c1O[C@]13C(=C[C@@H]4C[C@H]1C(C)(C)O[C@@]3(CC=C(C)C)C4=O)C2=O | 0.3 (≈ 0.627 µM)
6 | > 10 | COc1cc2c(c3c1C(=O)C1=C[C@@H]4C[C@H]5C(C)(C)O[C@](CC=C(C)C)(C4=O)[C@@]15O3)C(C)(C)[C@H](C)O2 | 0.8 (≈ 1.67 µM)
7 | 4.7 | C=CC(C)(C)c1c(O)cc(O)c2c1O[C@]13C(=C[C@@H]4C[C@H]1C(C)(C)O[C@@]3(CC=C(C)C)C4=O)C2=O [BRACTATIN] | 0.4 (≈ 0.861 µM)
